Assay results: article PMC7809625 (Cell Reports, 2021)

Assays:
VGLUT1 [1] = target: T1, VGLUT1 (Rattus norvegicus, UniProt Q62634); experiment: inhibition of Pi uptake in COS7-VGLUT1 cells at […]; assay type: cell-based
T1 sequence (Q62634 1-560): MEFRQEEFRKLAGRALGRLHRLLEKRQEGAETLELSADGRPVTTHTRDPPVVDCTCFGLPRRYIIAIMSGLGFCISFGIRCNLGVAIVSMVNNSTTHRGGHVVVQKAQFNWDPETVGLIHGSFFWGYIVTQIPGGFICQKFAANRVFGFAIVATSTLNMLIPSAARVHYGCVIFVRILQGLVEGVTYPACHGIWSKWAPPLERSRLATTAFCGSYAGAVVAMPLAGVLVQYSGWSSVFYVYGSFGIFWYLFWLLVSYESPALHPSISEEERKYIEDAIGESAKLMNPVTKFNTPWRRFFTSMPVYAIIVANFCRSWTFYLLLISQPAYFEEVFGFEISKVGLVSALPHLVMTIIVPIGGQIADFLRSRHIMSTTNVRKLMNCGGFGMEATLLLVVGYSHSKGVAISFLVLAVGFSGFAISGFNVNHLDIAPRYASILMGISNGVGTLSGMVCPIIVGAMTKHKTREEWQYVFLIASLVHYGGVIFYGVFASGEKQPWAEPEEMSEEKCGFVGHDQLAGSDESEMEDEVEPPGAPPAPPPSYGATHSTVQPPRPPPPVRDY

VGLUT1 [2] = target: T1, VGLUT1; experiment: inhibition of Na+-dependent Pi uptake in COS7-VGLUT1 cells; assay type: cell-based

Row | Ki (VGLUT1 [2]) | Structure (SMILES) | inhibition of Pi uptake in COS7-VGLUT1 cells at 10 uM (VGLUT1 [1])
1 | – | O=C1OC2(c3cc(I)c(O)c(I)c3Oc3c2cc(I)c(O)c3I)c2c(Cl)c(Cl)c(Cl)c(Cl)c21 [RB, Rose bengal] | The absence of additive effect of NB9 and RB emphasizes the specificity of both inhibitors toward VGLUT1.
2 | 1370 µM | N[C@@H](CCC(=O)O)C(=O)O [glutamate] | –
